Results: ChEMBL document CHEMBL1135903 (J Med Chem, 2002)

These compounds were tested against T1, Carbonic anhydrase 4 (Bos taurus, UniProt Q95323).
T1 sequence (Q95323 whole entry): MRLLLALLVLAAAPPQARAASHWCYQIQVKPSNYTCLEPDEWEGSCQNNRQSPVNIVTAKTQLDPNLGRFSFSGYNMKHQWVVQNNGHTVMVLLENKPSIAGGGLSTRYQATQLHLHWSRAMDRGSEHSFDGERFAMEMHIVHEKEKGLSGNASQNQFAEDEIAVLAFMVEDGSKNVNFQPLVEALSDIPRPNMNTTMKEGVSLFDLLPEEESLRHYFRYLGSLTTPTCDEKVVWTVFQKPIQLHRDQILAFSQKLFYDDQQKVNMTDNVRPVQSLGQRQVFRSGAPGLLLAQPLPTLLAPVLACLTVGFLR
Description: Inhibitory activity against bovine carbonic anhydrase IV

Ki [nM] | SMILES
32 | NS(=O)(=O)c1ccc(NC(=O)CN(CCN(CCN(CC(=O)O)CC(=O)O)CC(=O)O)CC(=O)O)c(Cl)c1
27 | NS(=O)(=O)c1ccc(NC(=O)CN(CCN(CCN(CC(=O)O)CC(=O)Nc2ccc(S(N)(=O)=O)cc2Cl)CC(=O)O)CC(=O)O)c(Cl)c1
24 | NS(=O)(=O)c1ccc(NC(=O)CN(CCN(CCN(CC(=O)O)CC(=O)Nc2ccc(S(N)(=O)=O)cc2I)CC(=O)O)CC(=O)O)c(I)c1
29 | NS(=O)(=O)c1ccc(NC(=O)CN(CCN(CCN(CC(=O)O)CC(=O)O)CC(=O)O)CC(=O)O)c(I)c1
500 | NS(=O)(=O)c1cccc(NC(=O)CN(CCN(CCN(CC(=O)O)CC(=O)O)CC(=O)O)CC(=O)O)c1
6 | NS(=O)(=O)c1nc2ccc(OC(=O)CN(CCN(CCN(CC(=O)O)CC(=O)O)CC(=O)O)CC(=O)O)cc2s1
36 | NS(=O)(=O)c1ccc(CCNC(=O)CN(CCN(CCN(CC(=O)O)CC(=O)O)CC(=O)O)CC(=O)O)cc1
630 | NS(=O)(=O)c1ccc(NNC(=O)CN(CCN(CCN(CC(=O)O)CC(=O)O)CC(=O)O)CC(=O)O)cc1
19 | Cn1nc(S(N)(=O)=O)s/c1=N/C(=O)CN(CCN(CCN(CC(=O)O)CC(=O)O)CC(=O)O)CC(=O)O
9 | NS(=O)(=O)c1nc2ccc(NC(=O)CN(CCN(CCN(CC(=O)O)CC(=O)O)CC(=O)O)CC(=O)O)cc2s1
430 | NS(=O)(=O)c1ccc(NNC(=O)CN(CCN(CCN(CC(=O)O)CC(=O)NNc2ccc(S(N)(=O)=O)cc2)CC(=O)O)CC(=O)O)cc1
27 | NS(=O)(=O)c1ccc(NC(=O)CN(CCN(CCN(CC(=O)O)CC(=O)O)CC(=O)O)CC(=O)O)c(Br)c1
21 | NS(=O)(=O)c1ccc(NC(=O)CN(CCN(CCN(CC(=O)O)CC(=O)Nc2ccc(S(N)(=O)=O)cc2Br)CC(=O)O)CC(=O)O)c(Br)c1
36 | NS(=O)(=O)c1cc(S(N)(=O)=O)c(NC(=O)CN(CCN(CCN(CC(=O)O)CC(=O)O)CC(=O)O)CC(=O)O)c(Cl)c1Cl
265 | NS(=O)(=O)c1ccc(COC(=O)CN(CCN(CCN(CC(=O)O)CC(=O)O)CC(=O)O)CC(=O)O)cc1

The next lines start with the compound.

SMILES | Ki [nM]
NS(=O)(=O)c1ccc(CCNC(=O)CN(CCN(CCN(CC(=O)O)CC(=O)NCCc2ccc(S(N)(=O)=O)cc2)CC(=O)O)CC(=O)O)cc1 [listing 1 of 2 here] | 16
Cn1nc(S(N)(=O)=O)s/c1=N/C(=O)CN(CCN(CC(=O)O)CC(=O)/N=c1/sc(S(N)(=O)=O)nn1C)CC(=O)O | 8
NS(=O)(=O)c1ccc(COC(=O)CN(CCN(CCN(CC(=O)O)CC(=O)OCc2ccc(S(N)(=O)=O)cc2)CC(=O)O)CC(=O)O)cc1 | 170
NS(=O)(=O)c1cccc(NC(=O)CN(CCN(CC(=O)O)CC(=O)Nc2cccc(S(N)(=O)=O)c2)CC(=O)O)c1 | 620
NS(=O)(=O)c1ccc(NC(=O)CN(CCN(CC(=O)O)CC(=O)Nc2ccc(S(N)(=O)=O)cc2)CC(=O)O)cc1 | 230
NS(=O)(=O)c1nnc(NC(=O)CN(CCN(CC(=O)O)CC(=O)Nc2nnc(S(N)(=O)=O)s2)CC(=O)O)s1 [listing 1 of 2 here] | 12
NS(=O)(=O)c1ccc(CCNC(=O)CN(CCN(CC(=O)O)CC(=O)NCCc2ccc(S(N)(=O)=O)cc2)CC(=O)O)cc1 | 54
NS(=O)(=O)c1nnc(NC(=O)CN(CCN(CC(=O)O)CC(=O)Nc2nnc(S(N)(=O)=O)s2)CC(=O)O)s1 [listing 2 of 2 here] | 5
NS(=O)(=O)c1ccc(CNC(=O)CN(CCN(CC(=O)O)CC(=O)NCc2ccc(S(N)(=O)=O)cc2)CC(=O)O)cc1 | 62
NS(=O)(=O)c1ccc(CCNC(=O)CN(CCN(CCN(CC(=O)O)CC(=O)NCCc2ccc(S(N)(=O)=O)cc2)CC(=O)O)CC(=O)O)cc1 [listing 2 of 2 here] | 25
NS(=O)(=O)c1nc2ccc(NC(=O)CN(CCN(CCN(CC(=O)O)CC(=O)Nc3ccc4nc(S(N)(=O)=O)sc4c3)CC(=O)O)CC(=O)O)cc2s1 | 6
NS(=O)(=O)c1nc2ccc(OCCOC(=O)CN(CCN(CCN(CC(=O)O)CC(=O)O)CC(=O)O)CC(=O)O)cc2s1 | 5
NS(=O)(=O)c1cc(S(N)(=O)=O)c(NC(=O)CN(CCN(CCN(CC(=O)O)CC(=O)Nc2cc(Cl)c(S(N)(=O)=O)cc2S(N)(=O)=O)CC(=O)O)CC(=O)O)cc1Cl | 41
